Like-named read-outs stand apart in the source and are kept apart here.

In assay [1] the test system is A549 (lung carcinoma). The assay can be described thus: In vitro antiproliferation assay, A549 cells (TABLE 1 6 point assay; TABLE 2). The format is cell-based. Particulars: Homo sapiens. On the procedure:
(§1) Certain compounds were tested against other cell types for their ability to inhibit proliferation in standard antiproliferation assays.

Assay [2] relates to H1299 (non-small cell lung carcinoma). Description: In vitro antiproliferation assay, H1299 cells (TABLE 1 6 point assay; TABLE 2). Conditions: Homo sapiens. The format is cell-based. As for the experimental part:
as §1

Setting [3] is: A549, A549 cells, 6 point assay, read-out: A549, 6pt (IC50, inhibition of proliferation).
[4] abbreviates: NCI-H1299, H1299 cells, 6 point assay, read-out: H1299, 6pt (IC50, inhibition of proliferation).
The mark [5] stands for this setting: A549, 6 point assay, A549 cells, read-out: IC50, A549 cells.
[6] abbreviates: NCI-H1299, 6 point assay, H1299 cells, read-out: IC50, H1299 cells.

Consider `Cc1cc(Nc2ncc(F)c(NC3C4C=CC(C4)C3C(=O)NC3CCC3)n2)ccc1N1CCN(C)CC1` (racemic) [compound 165, Racemic-(2-exo,3-exo)-N4-[3-(N-cyclobutyl)aminocarbonylbicyclo[2.2.1]hept-5-en-2-yl]-5-fluoro-N2-[3-methyl-4-(4-methylpiperazin-1-yl)phenyl]-2,4-pyrimidinediamine], for which the IC50 in assay [1] (setting [3]) and in assay [2] (setting [4]) was at most 0.1 µM in each case.
Turning to `Cc1ccc(Nc2ncc(F)c(N[C@H]3CCC[C@H]3C(N)=O)n2)cc1OCC(=O)N1CCN(C)CC1` (racemic) [compound 102, Racemic-cis-N4-(2-aminocarbonylcyclopent-1-yl)-5-fluoro-N2-[4-methyl-3-(4-methylpiperazin-1-yl)carbonylmethyleneoxyphenyl]-2,4-pyrimidinediamine], the IC50 in assay [1] (setting [3]) and in assay [2] (setting [4]) was 1 to 10 µM in each case.
In the case of `Cc1ccc(Nc2ncc(F)c(N[C@H]3[C@@H](C(N)=O)[C@@H]4C=C[C@H]3C4)n2)cc1OCC(=O)N1CCOCC1` [compound 125, (1R,2R,3S,4S)-N4-(3-Aminocarbonylbicyclo[2.2.1]hept-5-en-2-yl)-5-fluoro-N2-[4-methyl-3-(morpholin-4-ylcarbonylmethyleneoxy)phenyl]-2,4-pyrimidinediamine], the IC50 in assay [1] (setting [3]) and in assay [2] (setting [4]) was at most 0.1 µM each time.
Take `COCc1cc(Nc2ncc(F)c(NC3C4C=CC(C4)C3C(N)=O)n2)ccc1N1CCN(C)CC1` (racemic) [compound 235, Racemic-(2-exo,3-exo)-N4-(3-aminocarbonylbicyclo[2.2.1]hept-5-en-2-yl)-5-fluoro-N2-[3-methoxymethyl-4-(4-methylpiperazin-1-yl)phenyl)-2,4-pyrimidinediamine]: the IC50 in assay [1] (setting [5]) and in assay [2] (setting [6]) was at most 0.1 µM throughout.
For the compound `COC(=O)CN1CCc2ccc(Nc3ncc(F)c(N[C@H]4CCC[C@H]4C(N)=O)n3)cc2C1` (racemic) [compound 132, Racemic-cis-N4-(2-aminocarbonylcyclopent-1-yl)-5-fluoro-N2-[2-(methoxycarbonylmethylene)-1,2,3,4-tetrahydroisoquin-7-yl]-2,4-pyrimidinediamine], the IC50 in assay [1] (setting [3]) and in assay [2] (setting [4]) was 0.1 to 1 µM throughout.
Consider `CNC(=O)C1C2C=CC(C2)C1Nc1nc(Nc2ccc3c(c2)CCN3S(C)(=O)=O)ncc1F` (racemic) [compound 181, Racemic-(2-exo,3-exo)-5-fluoro-N4-[3-methylaminocarbonylbicyclo[2.2.1]hept-5-en-2-yl)-N2-[1-methylsulfonyl-2,3-dihydroindol-5-yl]-2,4-pyrimidinediamine], for which the IC50 in assay [1] (setting [3]) and in assay [2] (setting [4]) was at most 0.1 µM in each case.
Regarding `CN(C)CCN1CCc2cc(Nc3ncc(F)c(NC4C5C=CC(C5)C4C(=O)NC4CCC4)n3)ccc21` (racemic) [compound 176, Racemic-(2-exo,3-exo)-N4-[3-cyclobutylaminocarbonylbicyclo[2.2.1]hept-5-en-2-yl)-N2-[1-(2-dimethylaminoethyl)-2,3-dihydroindol-5-yl]-5-fluoro-2,4-pyrimidinediamine], the IC50 in assay [1] (setting [3]) and in assay [2] (setting [4]) was at most 0.1 µM each time.
In the case of `CN1CCN(C(=O)CCc2ccc(Nc3ncc(F)c(N[C@H]4CCC[C@H]4C(N)=O)n3)cc2)CC1` (racemic) [compound 280, Racemic-cis-N4-(2-aminocarbonylcyclopent-1-yl)-5-fluoro-N2-{4-[(4-methylpiperazin-1-yl)-propan-1-one-3-yl]}phenyl-2,4-pyrimidinediamine], the IC50 in assay [1] (setting [5]) and in assay [2] (setting [6]) was 1 to 10 µM each time.
`Cc1cc(Nc2ncc(F)c(N[C@@H]3CC=CC[C@H]3C(N)=O)n2)ccc1N1CCN(C)CC1` (racemic) [compound 229, Racemic-N4-(2-aminocarbonylcyclohex-4-ene-1-yl)-5-fluoro-N2-[3-methyl-4-(4-methylpiperazin-1-yl)phenyl]-2,4-pyrimidinediamine]: the IC50 in assay [1] (setting [5]) and in assay [2] (setting [6]) was above 10 µM throughout.
Regarding `Cc1cc(Nc2ncc(F)c(N[C@H]3CCC[C@H]3C(=O)NCC3CC3)n2)ccc1N1CCN(C)CC1` (racemic) [compound 158, Racemic-cis-N4-[2-(N-cyclopropylmethyl)aminocarbonylcyclopent-1-yl]-5-fluoro-N2-[4-(4-methylpiperazin-1-yl)-3-methylphenyl]-2,4-pyrimidinediamine], the IC50 in assay [1] (setting [3]) was in the range of 0.1 to 1 µM; in assay [2] (setting [4]) it was 1 to 10 µM.
In the case of `Cc1cc(Nc2ncc(F)c(N[C@H]3CCC[C@H]3C(N)=O)n2)ccc1N1CC(C)OC(C)C1` (mixture of isomers) [compound 283, Racemic-cis-N4-(2-aminocarbonylcyclopent-1-yl)-N2-[4-(2,6-dimethylmorpholino)-3-methyl]phenyl-5-fluoro-2,4-pyrimidinediamine], the IC50 in assay [1] (setting [5]) and in assay [2] (setting [6]) was 0.1 to 1 µM throughout.
On to `CN(C)CCN1CCOc2cc(Nc3ncc(F)c(N[C@H]4[C@@H](C(N)=O)[C@@H]5C=C[C@H]4C5)n3)ccc21` [compound 189, (1R,2R,3S,4S)-N4-(3-Aminocarbonylbicyclo[2.2.1]hept-5-en-2-yl)-5-fluoro-N2-(1-[2-(dimethylamino)ethyl]-3,4-dihydro-4H-benz[1,4]oxazin-6-yl}-2,4-pyrimidinediamine], for which the IC50 in assay [1] (setting [3]) and in assay [2] (setting [4]) was at most 0.1 µM each time.
In the case of `NC(=O)[C@@H]1CCC[C@@H]1Nc1nc(Nc2ccc3c(c2)CCN3)ncc1F` (racemic) [compound 157, Racemic-cis-N4-(2-aminocarbonylcyclopent-1-yl)-N2-(2,3-dihydroindol-5-yl)-5-fluoro-2,4-pyrimidinediamine], the IC50 in assay [1] (setting [3]) and in assay [2] (setting [4]) was 1 to 10 µM throughout.
Take `CN1CCN(C(=O)c2ccc(Nc3ncc(F)c(N[C@H]4CCC[C@H]4C(N)=O)n3)cc2)CC1` (racemic) [compound 281, Racemic-cis-N4-(2-aminocarbonylcyclopent-1-yl)-5-fluoro-N2-[4-(4-methylpiperaino-1-yl-carbonyl)phenyl]-2,4-pyrimidinediamine]: the IC50 in assay [1] (setting [5]) and in assay [2] (setting [6]) was 1 to 10 µM in each case.
Take `CN1CCC(c2cccc(Nc3ncc(F)c(NC4C5C=CC(C5)C4C(N)=O)n3)c2)CC1` (racemic) [compound 268, Racemic-(2-exo,3-exo)-N4-(3-aminocarbonylbicyclo[2.2.1]hept-5-en-2-yl)-5-fluoro-N2-[3-(1-methylpiperidin-4-yl)phenyl]-2,4-pyrimidinediamine]: the IC50 in assay [1] (setting [5]) and in assay [2] (setting [6]) was at most 0.1 µM in each case.
On to `Cc1cc(Nc2ncc(F)c(NC3C4C=CC(C4)C3C(N)=O)n2)ccc1N1CCCC1` (racemic) [Compound 288, Racemic-(2-exo,3-exo)-N4-(3-aminocarbonylbicyclo[2.2.1]hept-5-en-2-yl)-5-fluoro-N2-[3-methyl-4-(pyrrolidino)phenyl]-2,4-pyrimidinediamine], for which the IC50 in assay [1] (setting [5]) and in assay [2] (setting [6]) was 0.1 to 1 µM each time.
In the case of `Cc1cc(Nc2ncc(F)c(NC3CCCC3C(N)=O)n2)cc(C)c1O` (stereo not drawn) [compound 213, (cis)-N4-(2-Carboxamidocyclopent-1-yl)-N2-(3,5-dimethyl-4-hydroxyphenyl)-5-fluoro-2,4-pyrimidinediamine], the IC50 in assay [1] (setting [5]) and in assay [2] (setting [6]) was 0.1 to 1 µM in each case.

The values are drawn from US7868013B2, “Cycloalkyl substituted pyrimidinediamine compounds and their uses” (Rigel Pharmaceuticals, Inc., priority 2004, dated 2011).
